Positions of bridges follow the written chain, without caps; N, C: chain ends. Non-standard residues stand in square brackets, D forms with d. Residues, ends and D or L forms follow the SMILES beside them. d2Nal = N[C@H](Cc1ccc2ccccc2c1)C(=O)O

The target of test [1] is T1, Melanocortin receptor 4 (Homo sapiens, UniProt P32245). Briefly: Binding affinity against human Melanocortin-4 receptor.
Another test has as its target Melanocortin receptor 5 (Homo sapiens, UniProt P33032). Briefly: Binding affinity against human Melanocortin 5 receptor.
Another test has as its target Melanocortin receptor 3 (Homo sapiens, UniProt P41968). Briefly: Binding affinity for human Melanocortin-3 receptor.
Test [2] deals with T1, Melanocortin receptor 4. Briefly: Agonist activity against human Melanocortin-4 receptor. In kind it is functional.

T1 sequence (P32245 whole entry): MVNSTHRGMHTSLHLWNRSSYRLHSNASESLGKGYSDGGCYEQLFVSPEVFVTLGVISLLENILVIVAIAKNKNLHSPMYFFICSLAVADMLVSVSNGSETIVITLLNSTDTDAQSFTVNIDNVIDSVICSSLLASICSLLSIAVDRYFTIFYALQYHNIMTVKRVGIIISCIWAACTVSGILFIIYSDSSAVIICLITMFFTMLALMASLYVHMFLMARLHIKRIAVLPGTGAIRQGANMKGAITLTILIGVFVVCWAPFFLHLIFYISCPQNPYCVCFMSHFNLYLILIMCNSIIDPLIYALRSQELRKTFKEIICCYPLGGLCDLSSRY
Melanocortin receptor 5, sequence (P33032 whole entry): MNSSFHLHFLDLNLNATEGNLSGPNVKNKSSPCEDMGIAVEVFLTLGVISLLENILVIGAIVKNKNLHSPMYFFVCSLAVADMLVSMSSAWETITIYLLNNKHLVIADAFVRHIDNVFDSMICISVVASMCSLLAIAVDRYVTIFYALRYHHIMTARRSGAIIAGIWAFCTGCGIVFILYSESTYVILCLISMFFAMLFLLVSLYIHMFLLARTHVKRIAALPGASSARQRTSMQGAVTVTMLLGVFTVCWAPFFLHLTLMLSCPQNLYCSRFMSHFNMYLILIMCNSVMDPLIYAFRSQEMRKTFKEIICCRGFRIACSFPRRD
Melanocortin receptor 3, sequence (P41968 whole entry): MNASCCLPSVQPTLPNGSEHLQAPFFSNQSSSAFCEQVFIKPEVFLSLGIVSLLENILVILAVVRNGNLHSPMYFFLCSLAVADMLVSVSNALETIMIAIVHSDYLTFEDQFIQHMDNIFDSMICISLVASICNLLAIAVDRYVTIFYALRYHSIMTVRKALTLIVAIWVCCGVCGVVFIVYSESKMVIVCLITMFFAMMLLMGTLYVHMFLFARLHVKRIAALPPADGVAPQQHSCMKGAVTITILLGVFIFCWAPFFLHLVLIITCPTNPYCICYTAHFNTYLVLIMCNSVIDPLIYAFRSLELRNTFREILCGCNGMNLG

By IC50 is commonly meant the concentration that inhibits the measured activity by half. A lower IC50 goes with higher potency. As usually defined, the EC50 is the concentration that produces a half-maximal response. Low readings indicate an effect from little substance, high ones a need for much substance. Consider `N=C(N)NCCC[C@@H]1NC(=O)[C@@H](Cc2cccc3ccccc23)NC(=O)CCC(=O)NCCCC[C@@H](C(N)=O)NC(=O)[C@H](Cc2c[nH]c3ccccc23)NC1=O`, for which the IC50 at Melanocortin receptor 4 [1] is 0.5 nM; at Melanocortin receptor 5, 540 nM; on Melanocortin receptor 3, 150 nM. At Melanocortin receptor 5, this compound registered an EC50 of 530 nM.
On to `CC(=O)N[C@H]1CSSC[C@@H](C(=O)N2CCC[C@H]2C(=O)N2CCC[C@H]2C(=O)N[C@@H](CCCCN)C(=O)N[C@@H](CC(=O)O)C(N)=O)NC(=O)CNC(=O)[C@H](Cc2c[nH]c3ccccc23)NC(=O)[C@H](CCCNC(=N)N)NC(=O)[C@@H](Cc2ccc3ccccc3c2)NC(=O)[C@H](Cc2c[nH]cn2)NC(=O)[C@H](CCC(=O)O)NC1=O` (Ac-CEH[d2Nal]RWGCPPKD-NH2; disulfide 1-8), for which the IC50 on Melanocortin receptor 4 [1] turned out to be 1.5 nM; on Melanocortin receptor 5, 16 nM; on Melanocortin receptor 3, 25 nM.
In the case of `CC(=O)[C@@H]1CSSC[C@@H](C(=O)N2CCC[C@H]2C(=O)CN2CCC[C@H]2C(=O)CN[C@@H](CCCCN)C(=O)CN[C@@H](CC(=O)O)C(N)=O)NC(=O)CNC(=O)[C@@H](Cc2c[nH]c3ccccc23)NC(=O)[C@H](CCCN=C(N)N)NC(=O)[C@H](Cc2ccc3ccccc3c2)NC(=O)[C@H](Cc2c[nH]cn2)NC(=O)[C@@H](CCC(=O)O)NC1=O`, on Melanocortin receptor 4 [2], the Activity was 0%.

Values taken from ChEMBL document CHEMBL1135658, “Structure-activity studies of the melanocortin peptides: discovery of potent and selective affinity antagonists for the hMC3 and hMC4 receptors” (J Med Chem, 2002).
